Experiments:
PEO4 cells = assay: Caspase 3/7 assay, PEO4; format: cell-based; conditions: 50 μM olaparib, 24 hr
Description: Cells were pre-treated with 30 μM DB4 for 1 hr and then treated with various concentrations of olaparib for 72 hr. Cell survival was determined by MTS cytotoxicity assay. Data are means±SD (N=3-4). […] EOB calculation was used to quantify the synergy of the combination of DB4 and various concentrations of olaparib in PEO1 or PEO4 cells as shown in FIG. 8A. EOB>0, synergism; EOB=0, additivity; EOB<0, antagonism. […] Cells were pre-treated with 30 μM DB4-F for 1 hr and then treated with various concentrations of olaparib for 72 hr. Cell survival was determined by MTS cytotoxicity assay. Data are means±SD (N=3-4). […] EOB calculation was used to quantify the synergy of the combination of DB4-F and various concentrations of olaparib in PEO1 or PEO4 cells as shown in FIG. 8B. […] Cell survival was determined by MTS cytotoxicity assay. […] Caspase 3/7 activity was expressed as RLU per μg/μl protein. […] Caspase 3/7 activity was expressed as RLU per μg/μl protein. […] Cells were treated and caspase 3/7 activity was measured as described in FIG. 8G and FIG. 8H.
Furthermore, the effects of DB4 on olaparib-induced apoptosis at 24 hr were evaluated. […]
The assay was performed as described previously (Lin Z P et al., 2018, PLOS One, 13:e0207399). […] Total protein concentration of cell lysates was determined as described above. Caspase 3/7 activity was expressed as luminescence units (RLU) per μg/μL protein for each sample.

PEO1 cells = assay: Reversal of RNR inhibition by supplementing deoxyribonucleosides (MTS); format: cell-based; conditions: addition of dA plus dG, or all dNs, 72 hr
Description: FIG. 2, comprising FIG. 2A through FIG. 2F, depicts representative results of follow-up assays of in silico hit compounds in PEO1 and PEO4 cells. FIG. 2A depicts representative results of cytotoxicity assays on selected 25 in silico hit compounds in PEO1 and PEO4 cells. Cells were plated for 24 hr and then treated with 50 μM compounds for 72 hr. For a positive control, cells were treated with 1 μM triapine for 72 hr. The percentage of cell survival was determined by the MTS cytotoxicity assay. […] Cells were treated with 50 μM compounds or 1 μM triapine for 24 hr. During the last hour, cells were pulse-labeled with EdU, stained with the Click-iT EdU Alexa Fluor 488 Assay Kit, counterstained with 7-AAD, and subsequently analyzed by flow cytometry. EdU-positive cells were gated to determine the percentage of the S phase cell population. […] During the last hour, cells were pulse-labeled with EdU, stained with the Click-iT EdU Alexa Fluor 488 Assay Kit, counterstained with 7-AAD, and subsequently analyzed by flow cytometry. […] The percentages of DNA synthesis in cells treated with each of 10 compounds and triapine relative to the DMSO-treated control is calculated and shown. […] Cells were extracted with 65% methanol for determination of each of dNTPs expressed as pmole/10^6 cells. […] The percentage of cell survival was determined by the MTS cytotoxicity assay. […]

Structure (SMILES) | caspase 3/7 activity, olaparib alone (PEO4 cells) | reversal of inhibitory effects on cell survival by dNs (PEO1 cells) | effect on olaparib-induced caspase 3/7 activity (PEO4 cells; DB4 starting at 7.5 μM)
O=C(c1cc(Cc2n[nH]c(=O)c3ccccc23)ccc1F)N1CCN(C(=O)C2CC2)CC1 [olaparib, reference compound] | minor increase in caspase 3/7 activity |  | 
NC(=S)NN=Cc1ncccc1N [triapine, 3-aminopyridine-2-carboxaldehyde-thiosemicarbazone, reference compound] |  | partially reversed | 
C=CCn1c(SCc2cccc(Cl)c2)nnc1C1CCN(Cc2nc3ccccc3s2)CC1 [DB4, 2-[(4-{4-allyl-5-[(3-chlorobenzyl)thio]-4H-1,2,4-triazol-3-yl}-1-piperidinyl)methyl]-1,3-benzothiazole] |  | partially reversed | markedly augmented

— US20240239786A1, “COMPOSITIONS AND METHODS FOR THE TREATMENT AND PREVENTION OF CANCER” (Yale University, priority 2021, published 2024)
